# Values of other authors as cited in patent publication US20120263775A1, “PRODUCTION OF PESTICIDE GRANULATES IN A SPOUTED BED APPARATUS” (priority 2009, published 2012).
structure (smiles),measurement,value
"COC(=O)N(OC)c1ccccc1COc1ccn(-c2ccc(Cl)cc2)n1 [Pyraclostrobin, pyraclostrobin]",solubility in water,2 µg/mL
